Data as given in patent US10167262B2, “Herbicidal substituted 3-arylpyrazoles” (FMC CORPORATION, priority 2014, dated 2019).

Assays:
Assay in all cases: Test A pre-/postemergence greenhouse herbicide test, visual injury rating 0-100
Format in all cases: in vivo
[1] = test system: velvetleaf (Abutilon theophrasti)
Text: (§1) Seeds of plant species selected from barnyardgrass (Echinochloa crus-galli), large (Lg) crabgrass (Digitaria sanguinalis), giant foxtail (Setaria faberii), morningglory (Ipomoea spp.), pigweed (Amaranthus retroflexus), velvetleaf (Abutilon theophrasti), wheat (Triticum aestivum), and corn (Zea mays) were planted into a blend of loam soil and sand and treated preemergence with a directed soil spray using test chemicals formulated in a non-phytotoxic solvent mixture which included a surfactant. At the same time these species were also treated with postemergence applications of test chemicals formulated in the same manner. Plants ranged in height from 2 to 10 cm and were in the one- to two-leaf stage for the postemergence treatment. Treated plants and untreated controls were maintained in a greenhouse for approximately 10 days, after which time all treated plants were compared to untreated controls and visually evaluated for injury. Plant response ratings, summarized in Table A, are based on a 0 to 100 scale where 0 is no effect and 100 is complete control. A dash (-) response means no test result.

[2] = test system: morningglory (Ipomoea spp.)
Text: as §1

[3] = test system: wheat (Triticum aestivum)
Text: as §1

corn (Zea mays) = test system: corn (Zea mays)
Text: as §1

[4] = test system: barnyardgrass (Echinochloa crus-galli)
Text: as §1

[5] = test system: giant foxtail (Setaria faberii)
Text: as §1

[6] = test system: large (Lg) crabgrass (Digitaria sanguinalis)
Text: as §1

[7] = test system: pigweed (Amaranthus retroflexus)
Text: as §1

SMILES: CON=C(c1cccs1)c1c[nH]nc1-c1cc(Cl)cc(Cl)c1 [Compound 32]
- Plant response rating (0 to 100 scale), Velvetleaf ([1]; Postemergence, 125 g ai/ha): 60
- Plant response rating (0 to 100 scale), Velvetleaf ([1]; Postemergence, 500 g ai/ha): 70
- Velvetleaf plant response rating (0 = no effect, 100 = complete control) ([1]; Preemergence, 125 g ai/ha): 0
- Plant response rating (0 to 100 scale), Velvetleaf ([1]; Preemergence, 500 g ai/ha): 0
- Plant response rating (0 to 100 scale), Morningglory ([2]; Postemergence, 125 g ai/ha): 0
- Plant response rating (0 to 100 scale), Morningglory ([2]; Postemergence, 500 g ai/ha): 0
- Morningglory plant response rating (0 = no effect, 100 = complete control) ([2]; Preemergence, 125 g ai/ha): 0
- Plant response rating (0 to 100 scale), Morningglory ([2]; Preemergence, 500 g ai/ha): 0
- Plant response rating (0 to 100 scale), Wheat ([3]; Postemergence, 125 g ai/ha): 0
- Plant response rating (0 to 100 scale), Wheat ([3]; Postemergence, 500 g ai/ha): 0
- Wheat plant response rating (0 = no effect, 100 = complete control) ([3]; Preemergence, 125 g ai/ha): 0
- Plant response rating (0 to 100 scale), Wheat ([3]; Preemergence, 500 g ai/ha): 0
- Plant response rating (0 to 100 scale), Corn (corn (Zea mays); Postemergence, 125 g ai/ha): 0
- Plant response rating (0 to 100 scale), Corn (corn (Zea mays); Postemergence, 500 g ai/ha): 0
- Corn plant response rating (0 = no effect, 100 = complete control) (corn (Zea mays); Preemergence, 125 g ai/ha): 0
- Plant response rating (0 to 100 scale), Corn (corn (Zea mays); Preemergence, 500 g ai/ha): 0
- Plant response rating (0 to 100 scale), Barnyardgrass ([4]; Postemergence, 125 g ai/ha): 0
- Plant response rating (0 to 100 scale), Barnyardgrass ([4]; Postemergence, 500 g ai/ha): 0
- Barnyardgrass plant response rating (0 = no effect, 100 = complete control) ([4]; Preemergence, 125 g ai/ha): 0
- Plant response rating (0 to 100 scale), Barnyardgrass ([4]; Preemergence, 500 g ai/ha): 0
- Plant response rating (0 to 100 scale), Foxtail, Giant ([5]; Postemergence, 125 g ai/ha): 0
- Plant response rating (0 to 100 scale), Foxtail, Giant ([5]; Postemergence, 500 g ai/ha): 0
- Foxtail, Giant plant response rating (0 = no effect, 100 = complete control) ([5]; Preemergence, 125 g ai/ha): 0
- Plant response rating (0 to 100 scale), Foxtail, Giant ([5]; Preemergence, 500 g ai/ha): 0
- Plant response rating (0 to 100 scale), Crabgrass, Large ([6]; Postemergence, 125 g ai/ha): 0
- Plant response rating (0 to 100 scale), Crabgrass, Large ([6]; Postemergence, 500 g ai/ha): 0
- Crabgrass, Large plant response rating (0 = no effect, 100 = complete control) ([6]; Preemergence, 125 g ai/ha): 0
- Plant response rating (0 to 100 scale), Crabgrass, Large ([6]; Preemergence, 500 g ai/ha): 0
- Plant response rating (0 to 100 scale), Pigweed ([7]; Postemergence, 125 g ai/ha): 0
- Plant response rating (0 to 100 scale), Pigweed ([7]; Postemergence, 500 g ai/ha): 60
- Pigweed plant response rating (0 = no effect, 100 = complete control) ([7]; Preemergence, 125 g ai/ha): 0

SMILES: Clc1cc(Cl)cc(-c2n[nH]cc2C(=NNc2ccccc2)c2ccccc2)c1 [Compound 33]
- Plant response rating (0 to 100 scale), Velvetleaf ([1]; Postemergence, 1000 g ai/ha): 100
- Plant response rating (0 to 100 scale), Velvetleaf ([1]; Preemergence, 1000 g ai/ha): 80
- Plant response rating (0 to 100 scale), Morningglory ([2]; Postemergence, 1000 g ai/ha): 0
- Plant response rating (0 to 100 scale), Morningglory ([2]; Preemergence, 1000 g ai/ha): 0
- Plant response rating (0 to 100 scale), Wheat ([3]; Postemergence, 1000 g ai/ha): 0
- Plant response rating (0 to 100 scale), Wheat ([3]; Preemergence, 1000 g ai/ha): 0
- Plant response rating (0 to 100 scale), Corn (corn (Zea mays); Postemergence, 1000 g ai/ha): 0
- Plant response rating (0 to 100 scale), Corn (corn (Zea mays); Preemergence, 1000 g ai/ha): 0
- Plant response rating (0 to 100 scale), Barnyardgrass ([4]; Postemergence, 1000 g ai/ha): 0
- Plant response rating (0 to 100 scale), Barnyardgrass ([4]; Preemergence, 1000 g ai/ha): 0
- Plant response rating (0 to 100 scale), Foxtail, Giant ([5]; Postemergence, 1000 g ai/ha): 0
- Plant response rating (0 to 100 scale), Foxtail, Giant ([5]; Preemergence, 1000 g ai/ha): 0
- Plant response rating (0 to 100 scale), Crabgrass, Large ([6]; Postemergence, 1000 g ai/ha): 0
- Plant response rating (0 to 100 scale), Crabgrass, Large ([6]; Preemergence, 1000 g ai/ha): 0
- Plant response rating (0 to 100 scale), Pigweed ([7]; Postemergence, 1000 g ai/ha): 100
- Plant response rating (0 to 100 scale), Pigweed ([7]; Preemergence, 1000 g ai/ha): 100

SMILES: FC(F)(F)Cn1cc(C(=NNc2ccccc2)c2ccccc2)c(-c2cc(Cl)cc(Cl)c2)n1 [Compound 34]
- Plant response rating (0 to 100 scale), Velvetleaf ([1]; Postemergence, 125 g ai/ha): 10
- Plant response rating (0 to 100 scale), Velvetleaf ([1]; Postemergence, 500 g ai/ha): 30
- Velvetleaf plant response rating (0 = no effect, 100 = complete control) ([1]; Preemergence, 125 g ai/ha): 0
- Plant response rating (0 to 100 scale), Velvetleaf ([1]; Preemergence, 500 g ai/ha): 0
- Plant response rating (0 to 100 scale), Morningglory ([2]; Postemergence, 125 g ai/ha): 0
- Plant response rating (0 to 100 scale), Morningglory ([2]; Postemergence, 500 g ai/ha): 0
- Morningglory plant response rating (0 = no effect, 100 = complete control) ([2]; Preemergence, 125 g ai/ha): 0
- Plant response rating (0 to 100 scale), Morningglory ([2]; Preemergence, 500 g ai/ha): 0
- Plant response rating (0 to 100 scale), Wheat ([3]; Postemergence, 125 g ai/ha): 0
- Plant response rating (0 to 100 scale), Wheat ([3]; Postemergence, 500 g ai/ha): 0
- Wheat plant response rating (0 = no effect, 100 = complete control) ([3]; Preemergence, 125 g ai/ha): 0
- Plant response rating (0 to 100 scale), Wheat ([3]; Preemergence, 500 g ai/ha): 0
- Plant response rating (0 to 100 scale), Corn (corn (Zea mays); Postemergence, 125 g ai/ha): 0
- Plant response rating (0 to 100 scale), Corn (corn (Zea mays); Postemergence, 500 g ai/ha): 0
- Corn plant response rating (0 = no effect, 100 = complete control) (corn (Zea mays); Preemergence, 125 g ai/ha): 0
- Plant response rating (0 to 100 scale), Corn (corn (Zea mays); Preemergence, 500 g ai/ha): 0
- Plant response rating (0 to 100 scale), Barnyardgrass ([4]; Postemergence, 125 g ai/ha): 0
- Plant response rating (0 to 100 scale), Barnyardgrass ([4]; Postemergence, 500 g ai/ha): 0
- Barnyardgrass plant response rating (0 = no effect, 100 = complete control) ([4]; Preemergence, 125 g ai/ha): 0
- Plant response rating (0 to 100 scale), Barnyardgrass ([4]; Preemergence, 500 g ai/ha): 0
- Plant response rating (0 to 100 scale), Foxtail, Giant ([5]; Postemergence, 125 g ai/ha): 0
- Plant response rating (0 to 100 scale), Foxtail, Giant ([5]; Postemergence, 500 g ai/ha): 0
- Foxtail, Giant plant response rating (0 = no effect, 100 = complete control) ([5]; Preemergence, 125 g ai/ha): 0
- Plant response rating (0 to 100 scale), Foxtail, Giant ([5]; Preemergence, 500 g ai/ha): 0
- Plant response rating (0 to 100 scale), Crabgrass, Large ([6]; Postemergence, 125 g ai/ha): 0
- Plant response rating (0 to 100 scale), Crabgrass, Large ([6]; Postemergence, 500 g ai/ha): 0
- Crabgrass, Large plant response rating (0 = no effect, 100 = complete control) ([6]; Preemergence, 125 g ai/ha): 0
- Plant response rating (0 to 100 scale), Crabgrass, Large ([6]; Preemergence, 500 g ai/ha): 0
- Plant response rating (0 to 100 scale), Pigweed ([7]; Postemergence, 125 g ai/ha): 0
- Plant response rating (0 to 100 scale), Pigweed ([7]; Postemergence, 500 g ai/ha): 20
- Pigweed plant response rating (0 = no effect, 100 = complete control) ([7]; Preemergence, 125 g ai/ha): 0
- Plant response rating (0 to 100 scale), Pigweed ([7]; Preemergence, 500 g ai/ha): 0

SMILES: Brc1cc(Br)cc(-c2n[nH]cc2C2(c3ccccc3)SCCS2)c1 [Compound 62]
- Plant response rating (0 to 100 scale), Velvetleaf ([1]; Postemergence, 1000 g ai/ha): 90
- Plant response rating (0 to 100 scale), Velvetleaf ([1]; Preemergence, 1000 g ai/ha): 60
- Plant response rating (0 to 100 scale), Wheat ([3]; Postemergence, 1000 g ai/ha): 0
- Plant response rating (0 to 100 scale), Wheat ([3]; Preemergence, 1000 g ai/ha): 0
- Plant response rating (0 to 100 scale), Corn (corn (Zea mays); Postemergence, 1000 g ai/ha): 0
- Plant response rating (0 to 100 scale), Corn (corn (Zea mays); Preemergence, 1000 g ai/ha): 0
- Plant response rating (0 to 100 scale), Barnyardgrass ([4]; Postemergence, 1000 g ai/ha): 0
- Plant response rating (0 to 100 scale), Barnyardgrass ([4]; Preemergence, 1000 g ai/ha): 0
- Plant response rating (0 to 100 scale), Foxtail, Giant ([5]; Postemergence, 1000 g ai/ha): 0
- Plant response rating (0 to 100 scale), Foxtail, Giant ([5]; Preemergence, 1000 g ai/ha): 0
- Plant response rating (0 to 100 scale), Crabgrass, Large ([6]; Postemergence, 1000 g ai/ha): 0
- Plant response rating (0 to 100 scale), Crabgrass, Large ([6]; Preemergence, 1000 g ai/ha): 0
- Plant response rating (0 to 100 scale), Pigweed ([7]; Postemergence, 1000 g ai/ha): 100
- Plant response rating (0 to 100 scale), Pigweed ([7]; Preemergence, 1000 g ai/ha): 80
